Inconclusive results are not listed. Calls of active or inactive are those of the source. No rule for the calls is given here.
What follows are molecules tested on Mycobacterium tuberculosis non-replicating, growth inhibition (assay: growth inhibition of non-replicating M. tuberculosis (AID 488890)).

| SMILES | IC50 |
| --- | --- |
| COc1cccc(OCC(=O)NNC(=O)C(=O)Nc2cccc(C)c2)c1 | 6.72 µM |
| O=C(CCc1c[nH]c2ccccc12)Nc1ncccc1O | 15.1 µM (inactive) |
| CC1(C)OC(c2ccccc2)=C/C(=C\C=N\NC(=O)c2ccncc2)O1 | 1.75 µM |
| Cc1ccc(CSc2nnc(-c3cccnc3)o2)cc1 | 1.49 µM |
| COc1cc2c(cc1OC)CN(C(=O)c1ccc([N+](=O)[O-])o1)CC2 | 1.29 µM |
| O=C(COC(=O)C1CC2C=CC1C2)Nc1ccccc1 (centres undefined) | 35.7 µM (inactive) |
| CC(C)(C)NCc1cc(Br)ccc1OC1CCCC1 | 8.01 µM |
| CCOC(=O)c1ccc(-n2c(CCC(=O)O)ccc2-c2cccs2)cc1 | 36.2 µM (inactive) |
| N/C(=N/OC(=O)c1ccccc1Cl)c1ncc([N+](=O)[O-])s1 | 3.15 µM |
| Cc1cc(C)nc(-n2nc(C)cc2Nc2ccccc2)n1 | 5.25 µM |
| COC(=O)c1cccc(NC(=O)COc2cccc([N+](=O)[O-])c2)c1 | 7.11 µM |
| CCOC(=O)CNCCC(=O)c1ccc(Br)cc1 | 4.35 µM |
| Cc1cc(Cl)ccc1OC(C)C(=O)Nc1ccc([N+](=O)[O-])cn1 (centres undefined) | 23.3 µM (inactive) |
| O=C(Nc1nccs1)c1ccc(COc2ccc(Cl)cc2)o1 | 10.4 µM (inactive) |
| COC(=O)c1ccc(C(=O)NC2CCCc3c2cnn3-c2cc(F)cc(F)c2)nc1 (centres undefined) | 9.55 µM |
| O=C1Nc2ccc(Br)cc2/C1=C/C(=O)c1ccc2c(c1)OCO2 | 10.6 µM (inactive) |
| O=C(COc1ccccc1)NNc1nc2ccccc2s1 | 34.2 µM (inactive) |
| Cc1cc(NCc2ccccn2)n2nc(C)c(-c3ccc(Cl)cc3)c2n1 | 1.85 µM |
| CCC1CCc2sc(C(=O)NCC3CCCO3)cc2C1 (centres undefined) | 1.44 µM |
| COc1ccc(NC(=O)COc2ccccc2)cc1Cl | 22.2 µM (inactive) |

| SMILES | IC50 |
| --- | --- |
| Cc1cc(N2CCCCC2)nc(NCc2ccccc2)n1 | 8.38 µM |
| COC(=O)c1cc2c(ccc3ccccc32)oc1=O | 6.24 µM |
| O=[N+]([O-])c1ccc(-c2nc3ccc([N+](=O)[O-])cc3[nH]2)cc1 | 16 µM (inactive) |
| C#CCSc1nnc(-c2ccc(C)cc2)o1 | 0.82 µM |
| Cc1ccc(NC(=O)CNc2ccc(OC(C)C)cc2)cc1 | 4.11 µM |
| CCc1nnc(N/N=C/c2c(F)cccc2Cl)n1N | 15.3 µM (inactive) |
| Cc1cnc(NC(=O)c2ccccn2)s1 | 8.53 µM |
| COC(=O)CN(C#N)c1nc(N(C)C)nc(N(C)C)n1 | 16.5 µM (inactive) |
| c1ccc(CSc2ccc(-c3ccccn3)nn2)cc1 | 8.02 µM |
| COC12C(COC(N)=O)C3=C(C(=O)C(C)=C(N)C3=O)N1CC1C2N1C (centres undefined) | 0.12 µM |
| CN1C2CCC1/C(=C/c1ccccn1)C(=O)/C2=C\c1ccccn1 | 16.3 µM (inactive) |
| COc1cc(/C=C2/C(=O)NN(c3cccc(F)c3)C2=O)ccc1OC(=O)c1ccco1 | 5.04 µM |
| COc1ccc(-c2nnc(SCC(C)C)o2)cc1 | 0.9 µM |
| CCCCOc1ccc(CSCCN)cc1Cl | 27.8 µM (inactive) |
| COC(=O)CC(=O)N1CCN(c2ccc(Cl)c(Cl)c2)CC1 | 5.82 µM |
| COc1cccc(C(=O)N/N=C(/c2ccccc2)c2ccccn2)c1 | 4.04 µM |
| COc1ccc(C(=O)NNC2=C(C(=O)C(F)(F)F)CCC2)cc1 | 1.9 µM |
| CCOC(=O)C(C)Oc1cc(Cl)c(C=O)cc1OC (centres undefined) | 8.06 µM |
| Cc1cc(C)cc(NC(=O)CCc2ccc(C)o2)c1 | 1.42 µM |
| Nc1ccc(Br)c2cccnc12 | 15.8 µM (inactive) |

| SMILES | IC50 |
| --- | --- |
| O=C(O)c1ccc(-n2nc(C(F)(F)F)c3c2CCCC3)cc1 | 34.2 µM (inactive) |
| O=S(=O)(Nc1ccc(O)c2ccccc12)c1ccc(F)cc1 | 6.47 µM |
| CCCOc1ccc(CCC(=O)N/N=C/c2ccc([N+](=O)[O-])o2)cc1 | 4.22 µM |
| COc1cc(NC(=O)C/C(C)=N/NC(=O)c2cccs2)c(OC)cc1Cl | 7.93 µM |
| COc1ccccc1/C=C/C=N/NC(=O)c1ccncc1 | 1.08 µM |
| C/C(=N/NC(=O)c1ccncc1)C1=C(O)CC(C)(C)CC1=O | 13 µM (inactive) |
| COc1ccc(OCC(=O)N/N=C2\CCc3ccccc32)cc1 | 9.35 µM |
| COc1ccc(OCCOC(=O)c2cccs2)cc1 | 27.6 µM (inactive) |
| CN1CCN(c2c(F)cc3c(=O)c(C(=O)O)cn4c3c2SCC4)CC1 | 16.8 µM (inactive) |
| COc1ccc(CN=C2NN=C(c3ccc(Cl)cc3)CS2)cc1 | 13.8 µM (inactive) |
| COc1ccc(N/N=C/c2c(C(=O)O)ccc3ccccc23)cc1 | < 0.1 µM |
| COc1ccc(CCNc2nc(-c3ccccn3)cs2)cc1OC | 8.4 µM |
| CC(C)Cn1c(=O)c(C(=O)Nc2ccncc2)c(O)c2ccccc21 | 2.86 µM |
| Nc1ccc(Nc2ccccc2)cc1 | 6 µM |
| Cc1cccnc1NC(=O)c1c(O)c2ccccc2n(C)c1=O | 32 µM (inactive) |
| O=c1ccn(-c2ccccc2)[nH]1 | 7.52 µM |
| CCCCN(C/C=C/c1ccccc1OC)Cc1ccccc1 | 8.78 µM |
| CCOC(=O)C1CCN(c2nc3cc(OC)ccc3cc2C#N)CC1 | 11.1 µM (inactive) |
| Cc1cccc(C)c1NC(=O)COC(=O)CCc1c[nH]c2ccccc12 | 19.3 µM (inactive) |

From PubChem BioAssay AID488890 (Southern Research Specialized Biocontainment Screening …, 2010)
